From US20040177664A1, “Production of a high quality organic-based fertilizer” (priority 2003, published 2004)
“And” between values parts separate entries of the source, which are not always exact repeats. Equal values may be shown once.

Legend:
[1] = Influence of additives on sludge pH; assay type: physicochemical; conditions: for sludge pH: 0.5 g of each additive on about 5 g sludge
Procedure: The influence of different additives on the sludge pH was also evaluated.
Influence of Additives on Sludge PH
Treatments with urea, CaSO4, CaO

[2] = Odor reduction of municipal sludge, headspace GC-MS and odor; design: reducing odor / Relative reduction of peak area: concentration or dose not given beside the values; conditions: for reducing odor: oxidizing agents, general statement
Procedure: Effectiveness of the treatments was evaluated through the GC-MS analysis of the treated and untreated sludge. Sludge (5.0 g) was placed into a 44 ml vial. After heating to 60.0° C. for 5.0 minutes a probe of gas was taken from the vial (0.5 ml) and injected into the GC-MS.
Hewlett-Packard (HP) GC 5890 coupled with an HP 5971 mass-spectrometer. The system incorporates an electron beam as an ion source. Ions are filtered through a glass with silver-coated quadruples.
A DB5MS capillary chromatographic column is used and the MS is tuned with PFTBA in a Scan Mode (tune file: BFB.U).
For further characterization the peak area of the 94-ion was selected. The calibration was performed using dimethyldisulfide. A calibration curve is presented in the attached data.
In the first series, 6.00 g (±0.05) of the sludge with the addition of 10.0 ml of distilled water was used. For the treatment, we used potential oxidizers such as KNO3 and H2SO4 in different combinations.
In the second series we used 5.00 g (±0.01) of the sludge with no dilution. For the treatment we used additions of hydrogen peroxide (30%) −0.5 ml, sulfuric acid (98%), −0.5 ml, a combination of hydrogen peroxide and 0.5 ml and sulfuric acid 0. ml, ammonia (54%) −0.5ml, calcium hypochlorite −0.5 g.
The effectiveness of the additions is evaluated through decreasing the area of 94-ion signal with retention time around 1.94 minutes. We also investigated the influence of time.
The samples of the sludge (approximately 5.0 g) were placed into the vials and treated with additions of CaOCl2 at a temperature of 60.0° C.
The reproducibility of the treatment with calcium hypochlorite Ca(OCl)2 (CHC) on sludge was investigated. In all experiments, 5.0 g of sludge in a special vial was treated with an addition of percent of weight of odor reducer (0.05 g). After heating to 60.0° C. for 5.0 minutes, a sample of vapor over the sludge was taken and injected into the GC/MS. Total Ion Chromatograph signal with retention time […] were used for evaluation of the treatment corresponding to dimethylsulfide).

| SMILES | sludge pH [1] | effect on sludge pH [1] | reducing odor [2] | further results |
| --- | --- | --- | --- | --- |
| [O]=[Ca] [CaO, calcium oxide] | 11.5 and 11.65 | – | – | sludge pH ([1]; listed as calcium oxide): 11.8 |
| [Ca+2].[O-]Cl.[O-]Cl [CaOCl2, calcium hypochlorite] | – | does not affect the sludge pH | 98% | Relative reduction of peak area ([2]; against untreated sludge 376025): 97.98% and 96.16% and 98.54% and 96.59% and 98.86% and 99.03% and 99.17% and 99.47%; Average Relative Reduction of the peak area ([2]; eight replicates, confidence interval 95%): 98.23% and 98.23±0.85% |
| O=S(=O)([O-])[O-].[Ca+2] [CaSO4, Calcium sulfate] | 6.3 and 6.25 | does not change the sludge pH | – | – |
| NC(N)=O [Urea] | 8.32 and 8.45 | – | – | – |
| [K+].[O-]Cl [potassium hypochlorite] | – | – | 98% | – |
